Here are results for 2 compounds from patent US20160000702A1, “PHARMACEUTICAL COMPOSITION FOR ENHANCED TRANSMUCOSAL ADMINSTRATION OF BENZODIAZEPINES” (EASTGATE PHARMACEUTICALS INC., priority 2013, published 2016).

Values after ≈ are worked out from the molar mass of the structure shown.

For series [1] the following is noted: intranasal, human patients, anti-seizure activity; cited from earlier work.
A further series is described as follows: physchem. The note with it: for solubility: oil or lipid. As to the method:
After combining of pre-weighed amounts of components they were gently triturated at room temperature (20-22° C.) using a stainless steel spatula until liquid phase is formed.

Another series has as its system PTZ induced seizures. Put plainly: Timed intravenous PTZ infusion test (ivPTZ). It is filed as in vivo, mice. The note with it: Lorazepam 2.5 mg/kg (Graph 5). The text has this:
For investigation of anti-seizure activity of invented formulations, a timed intravenous PTZ infusion test was employed.
The technique of timed i.v. PTZ (pentylenetetrazole) infusion test (ivPTZ) is a simple, reproducible and fast method for assessment of onset, peak, duration and potency of various anticonvulsants and proconvulsants in animals. This test provides an extremely sensitive parametric method for assessing seizure threshold in individual animals and a quantifiable endpoint can be obtained with a minimal number of animals. Different seizure types can be chosen as endpoint in this test. Usually, the first seizure occurring during the PTZ infusion is a myoclonic twitch, followed by clonic and, later, tonic seizures. […]
During the infusion, mice are observed for the onset of different types of seizures. The time latencies from the start of infusion to the appearance of the first clonus (characterized by rapid involuntary rhythmic contraction and relaxation of limbs), lasting longer than 5 seconds, are recorded. […]
The infusion of PTZ will be terminated at 2 min, in case of non-appearance of clonic seizures. For such animals, the dose of PTZ in mg/kg infused during the course of 2 min is calculated as the threshold dose.
The threshold doses of PTZ producing clonic seizures are calculated (in mg/kg) using the following formula: […]

Series [2] in a line: Water solubility of Lorazepam in saline. The conditions noted are these: saline or isotonic.

With `Cc1ncc2n1-c1ccc(Cl)cc1C(c1ccccc1F)=NC2` [Midazolam], in series [1], the Onset of action entry was “approximately 10 minutes”.

What is called solubility is the dissolved amount per volume that the medium holds. On to `O=C1Nc2ccc(Cl)cc2C(c2ccccc2Cl)=NC1O` (stereo not drawn) [Lorazepam], for which the solubility in “physchem” (Lorazepam solubility in MCT with 5% Menthol, MCT oil + 5% Menthol by weight) was 5500 µg/mL; in the series “physchem” (Lorazepam solubility in MCT with 8% Menthol, MCT oil + 8% Menthol), 6800 µg/mL; in the series “physchem” (Solubility in capric/caprylic triglycerides (MCT oil), pure MCT oil, RT), 4300 µg/mL (≈ 13.4 mM); in “physchem” (Solubility of Lorazepam in peppermint oil, peppermint oil containing about 45% of menthol) it was 38900 µg/mL (≈ 121 mM); in series [2], roughly 27 µg/mL (≈ 0.0841 mM). Moreover, in the series “physchem” (versus pure MCT oil), the “Increase of Lorazepam solubility, MCT with 5% Menthol” value was 28%. Besides, the “Increase of Lorazepam solubility, MCT with 8% Menthol” value in “physchem” (versus pure MCT oil) is reported as roughly 60%. Moreover, the “Time to maximal protection” value with PTZ induced seizures is “approximately 5 minutes”.
